Experimental data: ChEMBL document CHEMBL1255238, “Induction of erm(C) expression by noninducing antibiotics” (2008)
In brackets after ≈: the same amount, converted by molar mass. Activity calls are given as the source filed them. No cut-off for these calls is given here.

Assays:
Escherichia coli [1] = experiment: Induction of erm(C) expression in Escherichia coli JM109 harboring Staphylococcus aureus erm(C)-containing pERMZalpha reporter plasmid at 10 mg/ml after 36 hrs at 37 degC by disc-based beta-galactosidase reporter gene assay; type: functional, organism-based
Escherichia coli [2] = experiment: Induction of erm(C) expression in Escherichia coli JM109 harboring Staphylococcus aureus erm(C)-containing pERMZ7 lacking codons 2 to 4 with additional mutations leader peptide cistrons reporter plasmid at 25 mg/ml after 36 hrs at 37 degC by disc-based beta-galactosidase reporter gene assay; type: functional, organism-based
Escherichia coli [3] = experiment: Induction of erm(C) expression in Escherichia coli JM109 harboring Staphylococcus aureus erm(C)-containing pERMZalpha reporter plasmid after 36 hrs at 37 degC by disc-based beta-galactosidase reporter gene assay; type: functional, organism-based
Escherichia coli [4] = experiment: Induction of erm(C) expression in Escherichia coli JM109 harboring Staphylococcus aureus erm(C)-containing pERMZdelta2-4 mutant leader peptide cistrons reporter plasmid at 25 mg/ml after 36 hrs at 37 degC by disc-based beta-galactosidase reporter gene assay; type: functional, organism-based
Escherichia coli [5] = experiment: Induction of erm(C) expression in Escherichia coli JM109 harboring Staphylococcus aureus erm(C)-containing pERMZalpha reporter plasmid at 1.5 mg/ml after 36 hrs at 37 degC by disc-based beta-galactosidase reporter gene assay; type: functional, organism-based
Escherichia coli [6] = experiment: Induction of erm(C) expression in Escherichia coli JM109 harboring Staphylococcus aureus erm(C)-containing pERMZalpha reporter plasmid after 36 hrs at 25 mg/ml 37 degC by disc-based beta-galactosidase reporter gene assay; type: functional, organism-based
Escherichia coli [7] = experiment: Induction of erm(C) expression in Escherichia coli ZK796 harboring Staphylococcus aureus erm(C)-containing pERMCT plasmid assessed as increase in A2058 dimethylation in 23S rRNA at 25% MIC after 4 hrs by primer extension assay; type: functional, organism-based
Escherichia coli [8] = experiment: Induction of erm(C) expression in Escherichia coli JM109 harboring Staphylococcus aureus erm(C)-containing pERMZalpha reporter plasmid at 8 mg/ml after 36 hrs at 37 degC by disc-based beta-galactosidase reporter gene assay; type: functional, organism-based
Escherichia coli [9] = experiment: Antimicrobial activity against Escherichia coli ZK796 harboring empty plasmid; type: functional
Escherichia coli [10] = experiment: Antimicrobial activity against Escherichia coli ZK796 harboring Staphylococcus aureus erm(C)-containing pERMCT plasmid; type: functional
Escherichia coli [11] = experiment: Induction of erm(C) expression in Escherichia coli JM109 harboring Staphylococcus aureus erm(C)-containing pERMZalpha reporter plasmid at 4.5 mg/ml after 36 hrs at 37 degC by disc-based beta-galactosidase reporter gene assay; type: functional, organism-based
Escherichia coli [12] = experiment: Induction of erm(C) expression in Escherichia coli ZK796 harboring Staphylococcus aureus erm(C)-containing pERMCT plasmid assessed as increase in A2058 dimethylation in 23S rRNA at 0.8 ug/ml after 30 mins by primer extension assay; type: functional, organism-based
Escherichia coli [13] = experiment: Induction of erm(C) expression in Escherichia coli ZK796 harboring Staphylococcus aureus erm(C)-containing pERMCT plasmid assessed as increase in A2058 dimethylation in 23S rRNA at 0.4 ug/ml after 4 hrs by primer extension assay; type: functional, organism-based
Escherichia coli [14] = experiment: Induction of erm(C) expression in Escherichia coli ZK796 harboring Staphylococcus aureus erm(C)-containing pERMCT plasmid assessed as increase in A2058 dimethylation in 23S rRNA at 0.4 ug/ml at 2 hrs by primer extension assay; type: functional, organism-based

Compound | Activity (Escherichia coli [1]) | Activity (Escherichia coli [2]) | Activity (Escherichia coli [4]) | Activity (Escherichia coli [7]) | other results
CC[C@H]1OC(=O)C[C@@H](O)[C@H](C)[C@@H](O[C@@H]2O[C@H](C)[C@@H](O[C@H]3C[C@@](C)(O)[C@@H](O)[C@H](C)O3)[C@H](N(C)C)[C@H]2O)[C@@H](CC=O)C[C@@H](C)C(=O)/C=C/C(C)=C/[C@@H]1CO[C@@H]1O[C@H](C)[C@@H](O)[C@@H](OC)[C@H]1OC | inactive |  |  |  | 
CC[C@H]1OC(=O)[C@@](C)(F)C(=O)[C@H](C)[C@@H](O[C@@H]2O[C@H](C)C[C@H](N(C)C)[C@H]2O)[C@](C)(OC)C[C@@H](C)C(=O)[C@H](C)[C@@H]2N(CCCCn3cnc(-c4cccnc4)c3)C(=O)O[C@@]21C |  | inactive | inactive |  | Activity (Escherichia coli [3]): Active
CC[C@H]1OC(=O)[C@H](C)C(=O)[C@H](C)[C@@H](O[C@@H]2O[C@H](C)C[C@H](N(C)C)[C@H]2O)[C@](C)(OC)C[C@@H](C)C(=O)[C@H](C)[C@@H]2N(NCCCc3ccnc4ccccc34)C(=O)O[C@@]21C |  | inactive | inactive |  | Activity (Escherichia coli [5]): Active; Activity (Escherichia coli [3]): Active
CC[C@H]1OC(=O)[C@H](C)C(=O)[C@H](C)[C@@H](O[C@@H]2O[C@H](C)C[C@H](N(C)C)[C@H]2O)[C@](C)(OC)C[C@@H](C)C(=O)[C@H](C)[C@@H]2N(NCCc3ccccc3)C(=O)O[C@@]21C |  | inactive | inactive |  | 
CC[C@H]1OC(=O)[C@H](C)[C@@H](O[C@H]2C[C@@](C)(OC)[C@@H](O)[C@H](C)O2)[C@H](C)[C@@H](O[C@@H]2O[C@H](C)C[C@H](N(C)C)[C@H]2O)[C@](C)(O)C[C@@H](C)/C(=N\OCOCCOC)[C@H](C)[C@@H](O)[C@]1(C)O |  | inactive | inactive |  | 
CC[C@H]1OC(=O)[C@H](C)[C@@H](O[C@H]2C[C@@](C)(OC)[C@@H](O)[C@H](C)O2)[C@H](C)[C@@H](O[C@@H]2O[C@H](C)C[C@H](N(C)C)[C@H]2O)[C@](C)(O)C[C@@H](C)CN(C)[C@H](C)[C@@H](O)[C@]1(C)O |  | inactive | inactive | Active | Activity (Escherichia coli [6]): inactive
CC[C@H]1OC(=O)[C@H](C)[C@@H](O[C@H]2C[C@@](C)(OC)[C@@H](O)[C@H](C)O2)[C@H](C)[C@@H](O[C@@H]2O[C@H](C)C[C@H](N(C)C)[C@H]2O)[C@](C)(OC)C[C@@H](C)C(=O)[C@H](C)[C@@H](O)[C@]1(C)O |  | inactive | inactive |  | Activity (Escherichia coli [8]): Active
CC[C@H]1OC(=O)[C@H](C)[C@@H](O[C@H]2C[C@@](C)(OC)[C@@H](O)[C@H](C)O2)[C@H](C)[C@@H](O[C@@H]2O[C@H](C)C[C@H](N(C)C)[C@H]2O)[C@](C)(OC)C[C@@H](C)C(=O)[C@H](C)[C@@H]2N(CCCCn3cnc(-c4cccnc4)c3)C(=O)O[C@@]21C | Active |  |  | Active | 
CC[C@H]1OC(=O)[C@H](C)[C@@H](O[C@H]2C[C@@](C)(OC)[C@@H](O)[C@H](C)O2)[C@H](C)[C@@H](O[C@@H]2O[C@H](C)C[C@H](N(C)C)[C@H]2O)[C@](C)(OC)C[C@@H](C)C(=O)[C@H](C)[C@@H]2N(NCCCc3ccnc4ccccc34)C(=O)O[C@@]21C | Active | inactive | inactive |  | 
CO[C@@H]1[C@@H](O[C@@H]2O[C@H](C)[C@@H](O[C@H]3C[C@@](C)(O)[C@@H](OC(=O)CC(C)C)[C@H](C)O3)[C@H](N(C)C)[C@H]2O)[C@@H](CC=O)C[C@@H](C)[C@@H](O)/C=C/C=C/C[C@@H](C)OC(=O)C[C@H]1OC(C)=O | inactive |  |  |  | 
CC[C@H]1OC(=O)[C@H](C)C(=O)[C@H](C)[C@@H](O[C@@H]2O[C@H](C)C[C@H](N(C)C)[C@H]2O)[C@](C)(OCC=Cc2cnc3ccccc3c2)C[C@@H](C)C(=O)[C@H](C)[C@H]2NC(=O)O[C@@]21C [CETHROMYCIN] |  | inactive | inactive | Active | Activity (Escherichia coli [3]): Active; MIC (Escherichia coli [9]): 1.5 µg/mL (≈ 1.96 µM); MIC (Escherichia coli [10]): 1.5 µg/mL (≈ 1.96 µM)
O=C(N[C@H](CO)[C@H](O)c1ccc([N+](=O)[O-])cc1)C(Cl)Cl [CHLORAMPHENICOL] |  |  |  |  | MIC (Escherichia coli [9]): 2 µg/mL (≈ 6.19 µM); MIC (Escherichia coli [10]): 2 µg/mL (≈ 6.19 µM)
CC[C@H]1OC(=O)[C@H](C)[C@@H](O[C@H]2C[C@@](C)(OC)[C@@H](O)[C@H](C)O2)[C@H](C)[C@@H](O[C@@H]2O[C@H](C)C[C@H](N(C)C)[C@H]2O)[C@](C)(O)C[C@@H](C)C(=O)[C@H](C)[C@@H](O)[C@]1(C)O [ERYTHROMYCIN] |  | inactive | inactive | Active | Activity (Escherichia coli [11]): Active; Activity (Escherichia coli [12]): Active; MIC (Escherichia coli [9]): 3 µg/mL (≈ 4.09 µM); MIC (Escherichia coli [10]): 25 µg/mL (≈ 34.1 µM)
CC[C@H]1OC(=O)[C@H](C)C(=O)[C@H](C)[C@@H](O[C@@H]2O[C@H](C)C[C@H](N(C)C)[C@H]2O)[C@](C)(OC)C[C@@H](C)C(=O)[C@H](C)[C@H]2N(CCCCn3cnc(-c4cccnc4)c3)C(=O)O[C@]12C [TELITHROMYCIN] |  | inactive | inactive | Active | Activity (Escherichia coli [5]): Active; Activity (Escherichia coli [3]): Active; Activity (Escherichia coli [13]): Active; Activity (Escherichia coli [14]): inactive; MIC (Escherichia coli [9]): 1.5 µg/mL (≈ 1.85 µM); MIC (Escherichia coli [10]): 1.5 µg/mL (≈ 1.85 µM)
SPIRAMYCIN | inactive |  |  |  | 
